According to patent US20250170154A1 (GreenStone Biosciences, Inc., priority 2023, published 2025):
Read-outs that look alike come from different tables or passages of the source.

How the values were obtained:
[1] = tested on: mice with L-arginine induced acute pancreatitis; conditions: Siriviriyakul et al., cited from earlier work
[2] = tested on: rat model of monocrotaline-induced pulmonary hypertension; conditions: Matori et al.; cited from earlier work
[3] = tested on: children with Sanfillipo syndrome; conditions: 160 mg/kg/day for 12 months, median age 7.2 years; cited from earlier work
[4] = tested on: healthy volunteers; conditions: amorphous solid dispersion, single doses 500 to 3000 mg, then 3000 mg over six consecutive days; cited from earlier work
[5] = log P; assay type: physicochemical
[6] = tested on: postmenopausal women; conditions: 54 mg per day, cited from earlier work
[7] = tested on: rats with cerulein (AEP) or sodium taurocholate (ANP) induced pancreatitis; conditions: Xia et al.; cited from earlier work
[8] = target: G protein-coupled estrogen receptor (Homo sapiens, UniProt Q99527); conditions: cited from earlier work
Chain of G protein-coupled estrogen receptor (Q99527 whole entry): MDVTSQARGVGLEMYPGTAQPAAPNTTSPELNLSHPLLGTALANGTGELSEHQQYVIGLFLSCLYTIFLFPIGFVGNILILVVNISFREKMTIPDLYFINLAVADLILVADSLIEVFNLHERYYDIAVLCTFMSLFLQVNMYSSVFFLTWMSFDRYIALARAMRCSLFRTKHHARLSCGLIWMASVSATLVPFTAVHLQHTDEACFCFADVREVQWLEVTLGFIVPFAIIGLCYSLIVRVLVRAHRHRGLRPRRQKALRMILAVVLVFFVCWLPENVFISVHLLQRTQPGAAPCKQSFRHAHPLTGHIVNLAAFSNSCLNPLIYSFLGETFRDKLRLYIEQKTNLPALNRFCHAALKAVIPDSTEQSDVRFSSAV

[9] = Pharmacokinetics in the rat, dosing in solution; conditions: in vivo, solution, 25 mg/Kg nominal, fasted male SD rat
[10] = tested on: patients with bladder cancer; conditions: 300 and 600 mg daily for 21 days; cited from earlier work
[11] = tested on: Db/Db mice fed a high fat diet; assay: Genistein in Db/Db mice fed a high fat diet; assay type: in vivo, mouse; conditions: high fat diet 6 weeks, then oral gavage 50 mg/Kg genistein in corn oil for 47 days
[12] = Thermodynamic solubility in FaSSIF; assay type: physicochemical; conditions: thermodynamic from solid, room temperature, 24 hours shaking
Description: After shaking, the samples were centrifuged at 25° C. for 20 minutes at 4000 rpm. Filtrates were prepared using the Whatman Mini-UniPrep Syringeless Filter Device (PTFE filter media with polypropylene housing, pore size 0.45 μm) from Cytiva, and dilutions were performed as required. Quantification of all samples was carried out using an LC-UV system.

[13] = tested on: wild-type mice fed a high fat diet; assay: Genistein in wild-type mice fed a high fat diet; assay type: in vivo, mouse; conditions: high fat diet 12 weeks, then intraperitoneal 200 mg/Kg genistein in corn oil for 14 days
[14] = tested on: mdx mice; conditions: Messina et al., cited from earlier work
[15] = Pharmacokinetics in the rat, solid form (powder in mini-capsules); assay type: in vivo
[16] = tested on: transthyretin tetramer (TTR); conditions: Green et al.; cited from earlier work
[17] = target: transthyretin tetramer (TTR) (Homo sapiens, UniProt P02766); conditions: Green et al.; cited from earlier work
[18] = solid form, genistein 71 mg/Kg together with 14.2 mg/Kg inulin

**Q.** With O=c1c(-c2ccc(O)cc2)coc2cc(O)cc(O)c12 [Genistein, 5,7-dihydroxy-3-(4-hydroxyphenyl)-4H-chromen-4-one] as the compound, how does the “edema, necrosis and cell death induced by L-arginine” value ([1]; 10 mg/Kg/day and 100 mg/Kg/day) read?
**A.** Its value is “significantly reducing”.

**Q.** And the “serum amylase, IL-6 and CRP levels” value ([1]; 10 mg/Kg/day and 100 mg/Kg/day)?
**A.** The value was “significantly reduced”.

**Q.** And the “NF-κB and 4-HNE expression” value [1]?
**A.** Its value is “curbing”.

**Q.** And the “monocrotaline-induced preexisting PH” value [2]?
**A.** Its value is “reversed”.

**Q.** What about the “progression of severe PH to right heart failure” value [2] of the same compound?
**A.** Its value is “prevented”.

**Q.** What about the “right ventricular ejection fraction” value [2] of the same compound?
**A.** The value was “restoring”.

**Q.** What about the right ventricular pressure [2] of the same compound?
**A.** The right ventricular pressure was “reducing”.

**Q.** And the adverse effects [3]?
**A.** Its adverse effects is “No treatment-specific severe adverse effects were reported”.

**Q.** And the adverse effects [4]?
**A.** Its adverse effects is “No significant adverse effects were reported, other than instances of diarrhea, headache or nausea at the highest dosages”.

**Q.** What about the logP [5] of the same compound?
**A.** Its logP is 3.04.

**Q.** And the “bone mineral density at femoral neck and lumbar spine” value ([6]; after 36 months)?
**A.** The value was “greater increases”.

**Q.** And the “mammographic breast density, endometrial thickness, expression of BRCA1 and BRCA2” value ([6]; after 36 months)?
**A.** Its value is “no significant changes”.

**Q.** What about the “sister chromatid exchange compared to placebo” value ([6]; after 36 months) of the same compound?
**A.** Its value is “reducing”.

**Q.** And the “discomfort or adverse events between participants” value [6]?
**A.** The value was “No differences”.

**Q.** And the “necrosis, edema and inflammatory infiltration compared to the experimental models” value [7]?
**A.** Its value is “mitigated”.

**Q.** What about the “affinity, agonist of G protein-coupled estrogen receptor” value [8] of the same compound?
**A.** Its value is 133 nM.

**Q.** And the AUC(0-t) ([9]; read-out: mean AUC0-last of dosed compound in plasma)?
**A.** The AUC(0-t) was roughly 0.5 µg·h/mL.

**Q.** What about the Cmax ([9]; read-out: mean cmax of dosed compound in plasma) of the same compound?
**A.** The Cmax was roughly 0.3 µg/mL.

**Q.** What about the half-life ([9]; read-out: mean t1/2 of dosed compound in plasma (converted)) of the same compound?
**A.** Its half-life is roughly 1.3 h.

**Q.** What about the Tmax ([9]; read-out: mean tmax of dosed compound in plasma (converted)) of the same compound?
**A.** Its Tmax is 0.167 h.

**Q.** What about the tolerability [10] of the same compound?
**A.** Its tolerability is “well tolerated, with no to mild side effects”.

**Q.** What about the “reduction of HbA1C” value [11] of the same compound?
**A.** The value was roughly 37%.

**Q.** And the “reduction of fasting blood glucose” value [11]?
**A.** The value was roughly 57%.

**Q.** And the solubility at 24 h ([12]; read-out: Solubility)?
**A.** The solubility at 24 h was 27 µM.

**Q.** What about the solubility at 24 h ([12]; read-out: Solubility (μg/mL)) of the same compound?
**A.** Its solubility at 24 h is 7.29 µg/mL.

**Q.** And the “reduction of fasting blood glucose” value [13]?
**A.** Its value is roughly 30%.

**Q.** And the “markers of oxidative stress” value [14]?
**A.** Its value is “reduced”.

**Q.** And the muscle necrosis [14]?
**A.** Its muscle necrosis is “reduced”.

**Q.** What about the muscle regeneration [14] of the same compound?
**A.** The muscle regeneration was “enhanced”.

**Q.** What about the serum creatine-kinase levels [14] of the same compound?
**A.** The serum creatine-kinase levels was “reduced”.

**Q.** And the “forelimb strength and strength normalized to weight” value ([14]; five-week old mdx mice, five weeks, daily or 3-times/week)?
**A.** The value was “increased”.

**Q.** And the AUC(0-t) ([15]; male, SD, rat, in vivo, po, 71 mg/kg, solid form, genistein 71 mg/Kg alone, considerable variability, read-out: mean AUC0-last of dosed compound in plasma)?
**A.** The AUC(0-t) was roughly 0.5 µg·h/mL.

**Q.** What about the AUC(0-t) ([15]; male, SD, rat, in vivo, po, 71 mg/kg, solid form, genistein 71 mg/Kg together with 14.2 mg/Kg inulin, read-out: mean AUC0-last with addition of inulin) of the same compound?
**A.** The AUC(0-t) was roughly 0.3 µg·h/mL.

**Q.** And the Cmax ([15]; male, SD, rat, in vivo, po, 71 mg/kg, read-out: mean cmax of dosed compound in plasma)?
**A.** The Cmax was roughly 0.16 µg/mL.

**Q.** And the Tmax ([15]; male, SD, rat, in vivo, po, 71 mg/kg, read-out: mean tmax of dosed compound in plasma)?
**A.** The Tmax was roughly 3 h.

**Q.** What about the half-life ([15]; male, SD, rat, in vivo, po, read-out: mean t1/2 of dosed compound in plasma (converted)) of the same compound?
**A.** The half-life was roughly 2 h.

**Q.** And the “effect of inulin on the peak” value [15, 18]?
**A.** The value was “slightly reducing”.

**Q.** And the “time of peak with addition of inulin” value [15, 18]?
**A.** Its value is “around 5 hours”.

**Q.** What about the “amyloidogenesis of TTR mutations V30M and V122I” value [16] of the same compound?
**A.** The value was “inhibits”.

**Q.** And the “acid-mediated fibril formation, of that exhibited by TTR alone” value [17]?
**A.** The value was less than 10%.

**Q.** What about the “binding to TTR in plasma over all of the other plasma proteins” value [17] of the same compound?
**A.** Its value is “highly selective binding”.
